Results as given in patent publication US10829528B2, “Therapeutic agents for neurological and psychiatric disorders” (VIB VZW, priority 2016, dated 2020).
Where no end group is shown, it is not given here.

Assays:
[1] = system: cultured hippocampal neurons; assay: FM1-43 dye labeling of presynaptic vesicle recycling; type: cell-based, mouse; conditions: 1 μM sAPPα in the presence of CGP
Method: We assessed the effect of sAPPα on synaptic vesicle recycling (ref6) using the activity-dependent dye FM1-43. We measured density (D) and intensity (ΔF) of FM1-43 uptake in presynaptic vesicles turned over by stimulation of 30 action potentials (APs) at a rate of 1 Hz in cultured hippocampal neurons.
The experiments were performed in mature (15-28 days in vitro) cultures. Hippocampal neurons were imaged using a FV1000 spectral Olympus confocal microscope using a 60×1.2 NA water immersion objective. The experiments were conducted at room temperature in extracellular Tyrode solution containing (in mM): NaCl, 145; KCl, 3; glucose, 15; HEPES, 10; MgCl2, 1.2; CaCl2), 1.2; pH adjusted to 7.4 with NaOH. For FM-based imaging and analysis, activity-dependent FM1-43 (10 μM) styryl dye was used to estimate basal synaptic vesicle recycling using previously described protocol48. Briefly, action potentials were elicited by passing 50 mA constant current for 1 ms through two platinum wires, separated by ˜7 mm and close to the surface of the coverslip. The extracellular medium contained non-selective blocker of glutamate receptors (0.5 mM kynurenic acid) to block recurrent neuronal activity. 30 stimuli at 1 Hz were applied during FM1-43 loading, while 800 stimuli at 2 Hz during unloading. The fluorescence of individual synapses was determined from the difference between images obtained after staining and after destining (ΔF). Detection of signals was done using custom-written scripts in MATLAB (Mathworks) as described before48.

[2] = system: Schaffer collateral (SC) synapses in mouse hippocampus; assay: fEPSP field recordings at Schaffer collateral synapses in hippocampal slices; type: cell-based
Method: We assessed the effect of sAPPα on the synaptic properties of Schaffer collateral (SC) synapses in mouse hippocampus. […] As change in probability of neurotransmitter release inversely correlates with a change in short-term facilitation, we applied a burst of 5 stimuli at 3 different frequencies (20, 50, and 100 Hz) to induce short-term facilitation at the SC. […] Preincubation with the GABABR antagonist CGP54626 (CGP, 10 μM) for 20 min before the incubation with sAPPα blocked its effects on the peak amplitude of the fESPS and the input/output slopes (FIG. 10f-g). Accordingly, CGP occluded sAPPα-induced augmentation of short-term facilitation at 20, 50, and 100 Hz burst frequencies (FIG. 10h-j).
On the day of recording the brain of a 2-month-old Balb/c male mouse was quickly removed and 400 μm-thick horizontal slices were prepared in an ice-cold oxygenated buffer containing (in mM): sucrose, 182; KCl, 2.5; MgSO4, 2; NaH2PO4, 1.25; NaHCO3, 25; CaCl2), 0.8; MgCl2, 5; glucose, 25; ascorbate, 1; HEPES, 20. The slicing procedure was performed using a Leica VT1200 vibrating microtome. Slices were then transferred to a submerged recovery chamber at room temperature containing oxygenated (95% 02 and 5% C02) storage artificial cerebrospinal fluid (ACSF) for 30 min before the incubations (see below). The storage ACSF contained, in mM: NaCl, 100; KCl, 2.5; MgSO4, 2; NaH2PO4, 1.25; NaHCO3, 25; CaCl2), 1.2; MgCl2, 3; glucose, 20; ascorbate, 1; sodium pyruvate,3 and HEPES, 20. The slices were incubated in the incubation chambers perfused with oxygenated storage ACSF containing the experimental agents for 90 min before performing field recordings: In the incubation chamber, control slices were perfused with normal storage ACSF while sAPPα slices were perfused with storage ACSF containing 1 μM sAPPα. CGP slices were perfused with storage ACSF containing 10 μM CGP54626 (Tocris). CGP+sAPPα slices were preincubated in the chamber perfused with ACSF+CGP before being transferred into the chamber perfused with storage ACSF implemented with 10 μM CGP54626+1 μM sAPPα. All recordings were performed at 32-33° C. in a recording chamber perfused with ACSF (4 ml/min) on the stage of an Olympus BX51WI microscope equipped with IR optics and oblique illumination. Recording ACSF contains, in mM: NaCl, 129; KCl, 2.5; CaCl2), 1.2; MgCl2, 1.2; NaHCO3, 25; NaH2PO4, 1.25; glucose, 15. Stimulation of the Schaffer-collateral was delivered through a glass suction electrode (10-20 μm tip) filled with ACSF. fEPSPs were recorded using a glass pipette containing ACSF (1-2 MΩ) from proximal synapses in the CA1 stratum radiatum. Field recording experiments were analyzed using Clampfit.

[3] = system: primary hippocampal neurons; assay: mEPSCs & mIPSCs in cultured primary hippocampal neurons (wild type); type: cell-based, mouse; conditions: for effect on mEPSC frequency (in words) / effect on mIPSC frequency (in words): 250 nM each
Method: mEPSCs & mIPSCs are measured in cultured primary hippocampal neurons at baseline and following acute application of agonists. Excitatory terminals selectively express the sushi domain-containing GABABR1a isoform (ref18), where it functions to inhibit neurotransmitter release (ref 24). Acute exposure of primary hippocampal neurons from wild type mice to 30μM baclofen, a GABABR agonist, or 250 nM sAPPα (Fc cleaved) reduces the frequency of miniature excitatory postsynaptic currents (mEPSCs) by 68% (FIG. 8 a,b) and 39% (FIG. 8 c,d), respectively, with no effect on mEPSC amplitude (FIG. 8e). […] Acute application of 30 μM baclofen or 250 nM purified sAPPα reduces the frequency of miniature inhibitory postsynaptic currents (mIPSCs) by 63% (FIG. 8a, 9a) and 44% (FIG. 8c, 9b), respectively, which is blocked by pretreatment with the GABABR antagonist CGP55845 (CGP, 5 μM) (FIG. 8f, 9d). Application of sAPPα causes a minor (14%) reduction on mIPSC amplitude (FIG. 8e, 9c). […] Baclofen is known to reduce the frequencies of mEPSCs and mIPSCs, which we have also confirmed. […] To confirm that the agonist is acting through GABABR1a, the agonist is tested in cultures with shRNA mediated knockdown of GABABR1a or antisense oligonucleotides mediated exon skipping of the exon encoding the Sushi domain 1 of GABABR1a. Antagonists are tested by treatment in combination with the agonist, Baclofen. […] As an antagonist we test an antibody against the sushi domain sequence (SEQ ID No: 5): […] SWTDMDTPSRCV. An antibody specifically binding to this domain which acts as an antagonist increases the frequencies of mEPSCs and mIPSCs. sAPPα also reduces mEPSC and mIPSC frequency in App/Aplp1 dKO cultures (FIG. 8j, 9f), excluding the possibility that sAPPα interferes with a complex of full-length APP and GABABR1 to exert its effect on GABABR signaling.
Hippocampal neurons were cultured from E18 C57/B16 wild type mice or APP/APLP1 dKO mice (provided by Ulrike Muller46) and plated on poly-D-lysine (Millipore), and laminin (Invitrogen) coated coverslips (Nalge Nunc International). Neurons were maintained in Neurobasal medium (Invitrogen) supplemented with B27, glucose, glutamax, penicillin/streptomycin (Invitrogen) and 25 μM β-mercaptoethanol.
Single neurons from wild type or APP/APLP1 null mutant embryos (E18) were recorded within the large neuronal network at DIV 12-15. The intracellular whole-cell pipette medium contained (in mM): 136 KCl, 18 HEPES, 4 Na-ATP, 4.6 MgCl2, 15 Creatine Phosphate, 1 EGTA and 50 U/ml Phospocreatine Kinase (300 mOsm, pH 7.30). Regular external solution contained 2 mM/2 mM Ca2+/Mg2+(in mM: 140 NaCl, 2.4 KCl, 2 CaCl2), 2 MgCl2, 10 HEPES, 14 Glucose (300 mOsm, pH 7.30)) and TTX (1 μM). Pharmacological reagents (30 μM baclofen, 5 μM CGP), sAPLP1, full length sAPP and sAPP derived peptides (250 nM each) were bath applied (dissolved in external medium described above) using a separate gravity driven application inlet. Recordings were done in whole cell voltage clamp configuration at −70 mV with a double EPC-10 amplifier (HEKA Elektronik) under control of Patchmaster v2×32 software (HEKA Elektronik). Currents were low-pass filtered at 3 kHz and stored at 20 kHz. Patch pipettes were pulled from borosilicate glass using a multi-step puller (P-1000; Sutter Instruments). Pipette resistance ranged from 3 to 5 MΩ and was compensated to 75-80%. Only cells with series resistances <15 MΩ were included in analysis. All recordings were done at room temperature. Spontaneous events were detected using Mini Analysis program (Synaptosoft). mEPSCs and mIPSCs were separated on the basis of their distinct decay kinetics, using a threshold of 5 ms47. Baseline was determined from an average of 60 sec of recordings prior to protein or drug treatment. Effect of treatment was determined from an average of 30 sec recordings after 140 sec of protein or drug treatment.

C[C@H](NC[C@H](O)CP(=O)(O)CC1CCCCC1)c1ccc(Cl)c(Cl)c1 [CGP54626, reference compound]
occlusion of the sAPPα effect on presynaptic strength [1]: occluded
block of sAPPα effects on peak fEPSP amplitude and input/output slopes ([2]; 10 μM preincubation for 20 min before sAPPα): blocked
occlusion of sAPPα-induced augmentation of short-term facilitation ([2]; 10 μM, 20, 50 and 100 Hz burst frequencies): occluded

C[C@H](NC[C@H](O)CP(=O)(O)Cc1ccccc1)c1ccc(Cl)c(Cl)c1 [CGP55845, reference compound]
block of the reduction of mIPSC frequency ([3]; pretreatment with antagonist 5 μM): blocked
block of the sAPPα effect on mEPSC frequency ([3]; pretreatment with antagonist 5 μM, then 250 nM sAPPα): blocks the effect of sAPPα on mEPSC frequency

NCC(CC(=O)O)c1ccc(Cl)cc1 (stereo not shown) [baclofen, reference compound]
reduction of mEPSC frequency ([3]; 30 µM): 68%
reduction of mIPSC frequency ([3]; 30 µM): 63%

DDSDVWWGGADTDYADG [17mer peptide, DDSDVWWGGADTDYADG]
effect on mEPSC frequency (in words) ([3]; acute application): reduces mEPSC frequency to a similar degree as sAPPα
effect on mIPSC frequency (in words) ([3]; acute application): reduce mIPSC frequency to a similar extent as sAPPα

B1: ExD-AcD: extension domain-acidic domain fragment of APP695 (195-298aa), non-Fc protein used in ITC and functional assays (protein)
chain: SVDSADAEEDDSDVWWGGADTDYADGGEDKVVEVAEEEEVADVEEEEADDDEDVEDGDEVEEEAEEPYEEATERTTSTATTTTTTTESVEEVVRVPTTAASTPD
modifications: left off: a dimerising Fc or GST; small tags and cut ends
notes: extension domain-acidic domain fragment of APP695 (195-298aa), non-Fc protein used in ITC and functional assays
effect on mEPSC frequency (in words) ([3]; acute application): reduces mEPSC frequency to a similar degree as sAPPα
effect on mIPSC frequency (in words) ([3]; acute application): reduce mIPSC frequency to a similar extent as sAPPα

B2: sAPLP1: soluble ectodomain of APP-like protein 1 (protein, UniProt Q03157 39-584, looked up)
extracellular domain: NLAVGSPSAAEAPGSAQVAGLCGRLTLHRDLRTGRWEPDPQRSRRCLLDPQRVLEYCRQMYPELHIARVEQAAQAIPMERWCGGTRSGRCAHPHHEVVPFHCLPGEFVSEALLVPEGCRFLHQERMDQCESSTRRHQEAQEACSSQGLILHGSGMLLPCGSDRFRGVEYVCCPPPATPNPSGMAAGDPSTRSWPLGGRAEGGEDEEEVESFPQPVDDYFVEPPQAEEEEEEEEERAPPPSSHTPVMVSRVTPTPRPTDGVDVYFGMPGEIGEHEGFLRAKMDLEERRMRQINEVMREWAMADSQSKNLPKADRQALNEHFQSILQTLEEQVSGERQRLVETHATRVIALINDQRRAALEGFLAALQGDPPQAERVLMALRRYLRAEQKEQRHTLRHYQHVAAVDPEKAQQMRFQVQTHLQVIEERMNQSLGLLDQNPHLAQELRPQIQELLLAEHLGPSELDASVPGSSSEDKGSLQPPESKDDPPVTLPKGSTDQESSSSGREKLTPLEQYEQKVNASAPRGFPFHSSDIQRDELAPSGTGVSRE
modifications: extracellular domain
effect on mEPSC frequency (in words) ([3]; acute application): not
reduction of mIPSC frequency ([3]; acute application, 30 μM baclofen, 250 nM proteins): 17%
